The source of these data is PubChem BioAssay AID330 (DTP/NCI, 2004).

For this assay, the system named is P388 leukemia ip, CD2F1 mice, survival T/C. In words: NCI In Vivo Anticancer Drug Screen. Data for tumor model P388 Leukemia (intraperitoneal) in CD2F1 (CDF1) mice. The conditions noted are these: endpoint: median survival time, higher = longer survival. In short, it runs like this: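 Mice carrying the transplanted tumor received test compound or vehicle. Survival was recorded in each group, and the value is the treated-group measurement divided by that of the vehicle-treated control group.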

The mark [1] stands for this setting: dose: 25.0 mg/kg/injection, schedule: Q01DX005 (ip), vehicle: saline.
Where [2] appears, read: dose: 50.0 mg/kg/injection, schedule: Q01DX005 (ip), vehicle: saline.
Where [3] appears, read: dose: 100.0 mg/kg/injection, schedule: Q01DX005 (ip), vehicle: saline.
[4] abbreviates: dose: 200.0 mg/kg/injection, schedule: Q01DX005 (ip), vehicle: saline.
The mark [5] stands for this setting: dose: 25.0 mg/kg/injection, schedule: Q01DX005 (ip), vehicle: saline with Tween-80.
[6] abbreviates: dose: 50.0 mg/kg/injection, schedule: Q01DX005 (ip), vehicle: saline with Tween-80.
The mark [7] stands for this setting: dose: 100.0 mg/kg/injection, schedule: Q01DX005 (ip), vehicle: saline with Tween-80.
Setting [8] is: dose: 50.0 mg/kg/injection, schedule: Q01DX009 (ip), vehicle: Klucel (hydroxypropylcellulose) (HPC).
Setting [9] is: dose: 100.0 mg/kg/injection, schedule: Q01DX009 (ip), vehicle: Klucel (hydroxypropylcellulose) (HPC).
Where [10] appears, read: dose: 200.0 mg/kg/injection, schedule: Q01DX009 (ip), vehicle: Klucel (hydroxypropylcellulose) (HPC).
[11] abbreviates: dose: 60.0 mg/kg/injection, schedule: Q01DX005 (ip), vehicle: Klucel (hydroxypropylcellulose) (HPC).
[12] abbreviates: dose: 120.0 mg/kg/injection, schedule: Q01DX005 (ip), vehicle: Klucel (hydroxypropylcellulose) (HPC).
Setting [13] is: dose: 12.5 mg/kg/injection, schedule: Q01DX005 (ip), vehicle: saline with Tween-80.
Where [14] appears, read: dose: 200.0 mg/kg/injection, schedule: Q01DX005 (ip), vehicle: saline with Tween-80.
[15] abbreviates: dose: 50.0 mg/kg/injection, schedule: Q01DX009 (ip), vehicle: saline with Tween-80.
[16] abbreviates: dose: 100.0 mg/kg/injection, schedule: Q01DX009 (ip), vehicle: saline with Tween-80.
The mark [17] stands for this setting: dose: 200.0 mg/kg/injection, schedule: Q01DX009 (ip), vehicle: saline with Tween-80.
Where [18] appears, read: dose: 50.0 mg/kg/injection, schedule: Q01DX005 (ip), vehicle: Klucel (hydroxypropylcellulose) (HPC).
[19] abbreviates: dose: 100.0 mg/kg/injection, schedule: Q01DX005 (ip), vehicle: Klucel (hydroxypropylcellulose) (HPC).
[20] abbreviates: dose: 200.0 mg/kg/injection, schedule: Q01DX005 (ip), vehicle: Klucel (hydroxypropylcellulose) (HPC).

“And” between values parts separate entries of the source, which are not always exact repeats. Identical values can stand only once. Toxic doses and inconclusive results are not listed.

Take `Br/N=C1/C=CC=C/C1=N/Br`: the T/C was 105 % of control and 108 % of control under setting [1]; 107 % of control and 110 % of control under setting [2]; 100 % of control and 107 % of control and 123 % of control under setting [3]; 98 % of control and 100 % of control and 106 % of control under setting [4].

On to `C/C=C/N=NNc1ccccc1OC`, for which the T/C (dose: 100.0 mg/kg/injection, schedule: Q04DX003 (ip), vehicle: saline + Tween-80 + alcohol) was 107 % of control.

With `CCN(CC)CCC(=O)c1cccc2ccccc12`, the T/C runs as follows: under setting [5], 100 % of control; under setting [6], 106 % of control; under setting [7], 102 % of control.

As for `COc1ccc(C2CC(=O)N(CC(=O)O)C(=O)C2)cc1`, the T/C is, setting by setting: (dose: 100.0 mg/kg/injection, schedule: Q04DX003 (ip), vehicle: suspension in saline) 103 % of control; (dose: 200.0 mg/kg/injection, schedule: Q04DX003 (ip), vehicle: suspension in saline) 100 % of control; (dose: 400.0 mg/kg/injection, schedule: Q04DX003 (ip), vehicle: suspension in saline) 99 % of control.

Consider `COc1ccc(N=Nc2c(C)nn(C(=O)c3ccncc3)c2C)cc1`, for which the T/C is, setting by setting: under setting [8], 108 % of control; under setting [9], 99 % of control; under setting [10], 101 % of control.

For `COc1cc(N=Nc2cccc(C(=O)O)c2)ccc1N(CCCl)CCCl`, the T/C runs as follows: (dose: 6.25 mg/kg/injection, schedule: Q01DX009 (ip), vehicle: saline with Tween-80) 106 % of control; (dose: 12.5 mg/kg/injection, schedule: Q01DX009 (ip), vehicle: saline with Tween-80) 121 % of control; (dose: 25.0 mg/kg/injection, schedule: Q01DX009 (ip), vehicle: saline with Tween-80) 152 % of control.

With `CCc1c(O)c2c(n(C)c1=O)CC(C)(C)NC2=S`, the T/C by setting is: under setting [11], 100 % of control; under setting [12], 100 % of control.

On to `COc1ccc(CCCc2cc3c(cc2OC)OCO3)cc1`, for which the T/C was 100 % of control under setting [11]; 100 % of control under setting [12]; 97 % of control (dose: 240.0 mg/kg/injection, schedule: Q01DX005 (ip), vehicle: Klucel (hydroxypropylcellulose) (HPC)).

As to `C1CN2CCN1CC2`, the T/C (dose: 50.0 mg/kg/injection, schedule: Q01DX009 (ip), vehicle: saline) is 99 % of control and 105 % of control; the T/C (dose: 100.0 mg/kg/injection, schedule: Q01DX009 (ip), vehicle: saline) was 94 % of control and 108 % of control; the T/C (dose: 200.0 mg/kg/injection, schedule: Q01DX009 (ip), vehicle: saline) was 103 % of control and 99 % of control.

In the case of `Cc1ccccc1N1CCN(c2ccccc2C)C1=C1N(c2ccccc2C)CCN1c1ccccc1C`, the T/C (dose: 85.0 micrograms/kg/injection, schedule: Q01DX009 (ip), vehicle: DMSO) is 101 % of control; the T/C (dose: 190.0 micrograms/kg/injection, schedule: Q01DX009 (ip), vehicle: DMSO) is 93 % of control; the T/C (dose: 380.0 micrograms/kg/injection, schedule: Q01DX009 (ip), vehicle: DMSO) is 93 % of control.

As for `O=C1C=C(O)C(=O)C(CC2=C(O)C(=O)C=C(O)C2=O)=C1O`, the T/C is, setting by setting: (dose: 12.5 mg/kg/injection, schedule: Q01DX005 (ip), vehicle: Klucel (hydroxypropylcellulose) (HPC)) 101 % of control and 90 % of control; (dose: 25.0 mg/kg/injection, schedule: Q01DX005 (ip), vehicle: Klucel (hydroxypropylcellulose) (HPC)) 86 % of control and 90 % of control and 95 % of control.

For the molecule `O=C(O)COc1cc(Cl)c(Cl)cc1Cl`, the T/C runs as follows: (dose: 6.25 mg/kg/injection, schedule: Q01DX005 (ip), vehicle: saline with Tween-80) 98 % of control; under setting [13], 100 % of control; under setting [5], 98 % of control; under setting [6], 98 % of control; under setting [7], 106 % of control; under setting [14], 97 % of control.

For `CC(C)NCc1ccccc1Sc1ccccc1`, the T/C runs as follows: (dose: 25.0 mg/kg/injection, schedule: Q01DX001 (ip), vehicle: saline with Tween-80) 96 % of control; (dose: 50.0 mg/kg/injection, schedule: Q01DX001 (ip), vehicle: saline with Tween-80) 104 % of control; (dose: 100.0 mg/kg/injection, schedule: Q01DX001 (ip), vehicle: saline with Tween-80) 95 % of control.

Turning to `CCCSCCC(C)(N)C(=O)O` (stereo not drawn), the T/C reads like this: (dose: 25.0 mg/kg/injection, schedule: Q01DX009 (ip), vehicle: Klucel (hydroxypropylcellulose) (HPC)) 98 % of control; under setting [8], 91 % of control; under setting [9], 107 % of control; under setting [10], 96 % of control.

On to `Cc1cc(NN)nc2n[nH]c(N)c12`, for which the T/C was 105 % of control under setting [13]; 97 % of control under setting [5]; 102 % of control and 112 % of control under setting [6].

For the molecule `N=C(N)c1ccc(OCCCOc2ccc(C(=N)N)cc2)cc1`, the T/C reads like this: (dose: 6.25 mg/kg/injection, schedule: Q01DX005 (ip), vehicle: saline) 108 % of control; (dose: 12.5 mg/kg/injection, schedule: Q01DX005 (ip), vehicle: saline) 117 % of control; under setting [1], 115 % of control.

`OC1c2ccccc2OC2(N3CCCC3)CCCCC12` (stereo not drawn): the T/C by setting is: under setting [15], 98 % of control; under setting [16], 94 % of control; under setting [17], 91 % of control.

`O=c1[nH]c2ccc(O)cc2o1`: the T/C is, setting by setting: (dose: 60.0 mg/kg/injection, schedule: Q01DX005 (ip), vehicle: saline with Tween-80) 108 % of control; (dose: 120.0 mg/kg/injection, schedule: Q01DX005 (ip), vehicle: saline with Tween-80) 95 % of control; (dose: 240.0 mg/kg/injection, schedule: Q01DX005 (ip), vehicle: saline with Tween-80) 100 % of control.

Take `CC1(C)SSCC1=O`: the T/C is, setting by setting: under setting [2], 104 % of control; under setting [3], 109 % of control; under setting [4], 108 % of control.

Turning to `O=c1cc(-c2ccccc2)oc2c(OCc3ccccc3)c(OCc3ccccc3)ccc12`, the T/C reads like this: (dose: 100.0 mg/kg/injection, schedule: Q04DX002 (ip), vehicle: saline with Tween-80) 100 % of control; (dose: 200.0 mg/kg/injection, schedule: Q04DX002 (ip), vehicle: saline with Tween-80) 102 % of control; (dose: 400.0 mg/kg/injection, schedule: Q04DX002 (ip), vehicle: saline with Tween-80) 96 % of control.

Turning to `CCCCN(CCCC)CCNc1ccc(C)c2sc3c(Cl)cccc3c(=O)c12`, the T/C under setting [18] was 99 % of control, the T/C under setting [19] was 108 % of control and the T/C under setting [20] is 105 % of control.

In the case of `CC1(C)CC(=O)C2=C(C1)CC1(C)CC(C)(C)CC2(OC(=O)Cc2ccccc2)C1` (stereo not drawn), the T/C under setting [18] was 98 % of control, the T/C under setting [19] is 95 % of control and the T/C under setting [20] is 92 % of control.

On to `CCOC(=O)c1cc(NO)c(=O)c2ccc(OC)cc2c1`, for which the T/C is, setting by setting: under setting [5], 91 % of control; under setting [6], 90 % of control and 96 % of control; under setting [7], 89 % of control; under setting [14], 91 % of control.

Turning to `COC(CCC1CO1)OC` (stereo not drawn), the T/C runs as follows: under setting [15], 100 % of control; under setting [16], 96 % of control; under setting [17], 99 % of control.

As to `Cc1ccc(NC(=O)Oc2ccc(Cl)c(C)c2)c([N+](=O)[O-])c1`, the T/C reads like this: under setting [16], 87 % of control; under setting [17], 88 % of control.

In the case of `COc1ccc2c(c1)OC(C)(C)C(c1ccccc1)=C2c1ccc(OCCBr)cc1`, the T/C runs as follows: under setting [18], 101 % of control; under setting [19], 98 % of control; under setting [20], 100 % of control.

Consider `C[CH2][Sn]([Cl])([CH2]C)[c]1cc[c]([Sn]([Cl])([CH2]C)[CH2]C)cc1`, for which, for the setting “dose: 0.02 mg/kg/injection, schedule: Q01DX005 (ip), vehicle: Klucel (hydroxypropylcellulose) (HPC)”, the T/C is 118 % of control.

For `FC(F)(c1nc2ccccc2[nH]1)C(F)(F)C(F)(F)c1nc2ccccc2[nH]1`, the T/C runs as follows: under setting [6], 95 % of control; under setting [7], 89 % of control; under setting [14], 88 % of control.
